Laboratory results as given in patent publication US10501479B2, “Benzenesulfonyl-asymmetric ureas and medical uses thereof” (HELSINN HEALTHCARE SA, priority 2016, dated 2019).
Where two headings read alike, the source gives them in different places.

Legend:
[1] = molecular target: T1, GHSR-1a (HEK293/GHSR1a cell line) (Homo sapiens, UniProt Q92847); test: Ghrelin agonist potency (EC50) with calcium FLIPR assay; assay type: cell-based
T1 construct: expressed in transfected cells; host or cells: HEK293/GHSR1a cell line
T1 sequence (Q92847 whole entry): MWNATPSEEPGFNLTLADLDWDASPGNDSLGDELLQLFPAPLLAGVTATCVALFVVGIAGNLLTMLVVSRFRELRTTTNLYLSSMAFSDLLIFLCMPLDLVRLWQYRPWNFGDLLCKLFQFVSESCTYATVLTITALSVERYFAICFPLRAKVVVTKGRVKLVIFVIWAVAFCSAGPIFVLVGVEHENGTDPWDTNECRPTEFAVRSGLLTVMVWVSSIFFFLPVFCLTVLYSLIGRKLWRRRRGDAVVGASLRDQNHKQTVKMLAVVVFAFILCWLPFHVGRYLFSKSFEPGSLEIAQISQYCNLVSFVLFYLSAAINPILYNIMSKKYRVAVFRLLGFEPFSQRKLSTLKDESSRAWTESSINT
Outline: (§1)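 Dye preload 30-60 min, RT or 37° C; compound in DMSO. Agonist mode: compound at t=20 sec, Ca2+ read 2 min. Antagonist mode: compound + ghrelin 10 nM at t=20 sec, 2 min read. EC50/IC50 from dose-response curves.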

[2] = molecular target: T1, GHSR-1a (HEK293/GHSR1a cell line); test: Ghrelin antagonist potency (IC50) with calcium FLIPR assay, ghrelin 10 nM; assay type: cell-based; settings: HEK293/GHSR1a, ghrelin 10 nM, read-out: Activity IC50 (ghrelin antagonist potency)
Outline: as §1

[3] = molecular target: T2, recombinant human ghrelin receptor (HEK293/GRLN) (Homo sapiens, UniProt Q92847); test: Ghrelin inverse agonist potency (EC50) with IP-1 (IP-One HTRF) assay; assay type: cell-based; settings: IP-1 assay
T2 construct: expressed in transfected cells
T2 sequence (Q92847 whole entry): as above
Outline: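 HEK293/GRLN cells were seeded 18-22 hours before the test, then exposed to compound in stimulation buffer for 1 hour at 37° C, 5% CO2. IP-1 was detected by IP-One HTRF (IP1-d2 plus Tb-cryptate, 1 hour RT), reading 620 and 665 nm; the inverse agonist EC50 was derived from this.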

[4] = Metabolic stability in mouse liver microsomes; assay type: in vitro ADME
Description: (§2) Metabolic Stability Study
(§3) The metabolic stability of compounds in human, dog, rat and mouse liver microsomes was performed according the experimental conditions reported below:
(§4) • a) Prepare the following 5 stock solutions: • 1. Test compound stock solutions: dilute 10 mM solution of dextromethorphan (Dtr) in DMSO, 10 mM solution of diphenhydramine (DPA) in DMSO, 10 mM solution of omeprazole (Ome) in DMSO, 10 mM solution of verapamil (Ver) in DMSO, and 10 mM of an inverse agonist compound in DMSO to 0.25 mM solution each with acetonitrile/water (70/30). • 2. Buffer: 100 mM potassium phosphate Buffer (PBS) at pH 7.4 • 3. Liver microsomes (20 mg/ml): Thaw in 37° C. water bath quickly • 4. 2000 μL: of NADPH regenerating system (1.3 mM). Place this system on ice before use:
(§5) • 5. […] The test compound concentration in the wells, measured by LC-MS/MS, represents the concentration at time=0. • f) To determine the test compound concentration when t≠0, pre-incubate the NADPH regenerating system and the incubation plate containing the remaining 320 μL of incubation mixture (microsomes protein and test compound) for 5 minutes at 37° C. • g) Start the incubation reaction by adding 80 μL NADPH regenerating system to each well containing the remaining 320 μL incubation mixture. • h) After 10 min., 30 min., and 90 min. of incubation at 37° C., transfer 100 μL of the incubation mixture (microsomes protein, test compound, and NADPH) into the wells of a stop plate pre-filled with 300 μL of the cold quench solution. Shake well. • i) Centrifuge the stop plate at 5000×g for 10 minutes. Collect and dilute the supernatant 3 times with distilled water. Sample and analyze the test compound concentration for all the wells by LC-MS/MS. Animal PK Studies via i.v. (intravenous), p.o. (orally) and s.c. (subcutaneous) administrations

[5] = Metabolic stability in human liver microsomes; assay type: in vitro ADME
Description: as §2, §3, §4, §5

[6] = HEK293/GHSR1a, read-out: Activity EC50/EMax: EC50 (ghrelin agonist potency)
[7] = HEK293/GRLN, read-out: Activity EC50 (ghrelin inverse agonist potency)

Structure (SMILES) | EC50 [1, 6] [nM] | IC50 [2] [nM] | EC50 [3, 7] [nM] | Metabolic Stability Study M = mouse [4] [µL/min/mg] | Metabolic Stability Study H = human [5] [µL/min/mg] | EC50 ([1]; ghrelin agonist potency, read-out: Activity EC50/EMax) [nM] | EC50 ([3]; ghrelin inverse agonist potency, read-out: Activity EC50) [nM]
Cc1oc(=O)oc1COC(=O)N1Cc2ccc(CS(=O)(=O)c3ccc(NC(=O)NC(C)c4ccccc4)cc3)cc2C1 (centres unmarked) [H1256, (5-methyl-2-oxo-1,3-dioxol-4-yl)methyl 5-(((4-(3-(1-phenylethyl)ureido)phenyl)sulfonyl)methyl)isoindoline-2-carboxylate] | > 30000 | 90 | 124 | 272.6 | 268.4 | – | –
CC(NC(=O)Nc1ccc(S(=O)(=O)Cc2ccc3c(c2)CNC3)cc1)c1cccc(Cl)c1 (centres unmarked) [H1260, 1-(1-(3-chlorophenyl)ethyl)-3-(4-((isoindolin-5-ylmethyl)sulfonyl)phenyl)urea] | > 30000 | 3.7 | 4.4 | 24.7 | 38.9 | – | –
CC(NC(=O)Nc1ccc(S(=O)(=O)Cc2ccc3c(c2)CN(C)C3)cc1)c1cccc(Cl)c1 (centres unmarked) [H1266, 1-(1-(3-chlorophenyl)ethyl)-3-(4-(((2-methylisoindolin-5-yl)methyl)sulfonyl)phenyl)urea] | > 30000 | 24.2 | 19.1 | 106.1 | 169.4 | – | –
CC(NC(=O)Nc1ccc(S(=O)(=O)Cc2ccc3c(c2)CN(C)C3)cc1)c1ccccc1Cl (centres unmarked) [H1267, 1-(1-(2-chlorophenyl)ethyl)-3-(4-(((2-methylisoindolin-5-yl)methyl)sulfonyl)phenyl)urea] | > 30000 | 9.2 | 4.7 | 147.8 | 109.8 | – | –
CC(NC(=O)Nc1ccc(S(=O)(=O)Cc2ccc3c(c2)CN(C)C3)cc1)c1ccc(F)cc1 (centres unmarked) [H1268, 1-(1-(4-fluorophenyl)ethyl)-3-(4-(((2-methylisoindolin-5-yl)methyl)sulfonyl)phenyl)urea] | > 30000 | 83.2 | 29.9 | 60.5 | 108.7 | – | –
CC(NC(=O)Nc1ccc(S(=O)(=O)Cc2ccc3c(c2)CNC3)cc1)c1cccc(F)c1 (centres unmarked) [H1269, 1-(1-(3-fluorophenyl)ethyl)-3-(4-((isoindolin-5-ylmethyl)sulfonyl)phenyl)urea] | > 30000 | 24 | 8.8 | 23.6 | 25.7 | – | –
CC(NC(=O)Nc1ccc(S(=O)(=O)Cc2ccc3c(c2)CNC3)cc1)c1ccccc1F (centres unmarked) [H1272, 1-(1-(2-fluorophenyl)ethyl)-3-(4-((isoindolin-5-ylmethyl)sulfonyl)phenyl)urea] | > 30000 | 23.5 | 5.3 | 18.6 | 18.4 | – | –
CC(NC(=O)Nc1ccc(S(=O)(=O)Cc2ccc(CN3CCCC3)cc2)cc1)c1ccccc1 (centres unmarked) [H1276, 1-(1-phenylethyl)-3-(4-((4-(pyrrolidin-1-ylmethyl)benzyl)sulfonyl)phenyl)urea] | > 30000 | 76 | 23.4 | 247 | 109.7 | – | –
CCc1ccc(Cl)c(C(C)NC(=O)Nc2ccc(S(=O)(=O)Cc3ccc4c(c3)CNC4)cc2)c1 (centres unmarked) [H1281, 1-(1-(2-chloro-5-ethylphenyl)ethyl)-3-(4-((isoindolin-5-ylmethyl)sulfonyl)phenyl)urea] | > 30000 | 39 | 15.3 | 47.8 | 63.8 | – | –
CCc1ccc(Cl)c(C(C)NC(=O)Nc2ccc(S(=O)(=O)Cc3ccc4c(c3)CN(C)C4)cc2)c1 (centres unmarked) [H1286, 1-(1-(2-chloro-5-ethylphenyl)ethyl)-3-(4-(((2-methylisoindolin-5-yl)methyl)sulfonyl)phenyl)urea] | > 30000 | 39.5 | 24.3 | 162.4 | 251.8 | – | –
C[C@H](NC(=O)Nc1ccc(S(=O)(=O)Cc2ccc3c(c2)CN(C)C3)cc1)c1ccccc1 [H1299, (S)-1-(4-(((2-methylisoindolin-5-yl)methyl)sulfonyl)phenyl)-3-(1-phenylethyl)urea] | > 30000 | 192 | 102 | 50.9 | 71.5 | – | –
C[C@@H](NC(=O)Nc1ccc(S(=O)(=O)Cc2ccc3c(c2)CN(C)C3)cc1)c1ccccc1 [H1300, (R)-1-(4-(((2-methylisoindolin-5-yl)methyl)sulfonyl)phenyl)-3-(1-phenylethyl)urea] | > 30000 | – | – | 42.1 | 124.3 | – | –
CC(NC(=O)Nc1ccc(S(=O)(=O)Cc2ccc3c(c2)CN(C)C3)cc1)c1cccc2ccccc12 (centres unmarked) [H1302, 1-(4-(((2-methylisoindolin-5-yl)methyl)sulfonyl)phenyl)-3-(1-(naphthalen-1-yl)ethyl)urea] | > 30000 | 5.7 | 4.7 | 164.1 | 201.7 | – | –
C[C@H](NC(=O)Nc1ccc(S(=O)(=O)Cc2ccc3c(c2)CCNCC3)cc1)c1ccccc1 [H1306, (S)-1-(1-phenylethyl)-3-(4-(((2,3,4,5-tetrahydro-1H-benzo[d]azepin-7-yl)methyl)sulfonyl)phenyl)urea] | > 30000 | 62 | 74.6 | 19.6 | 31.2 | – | –
CC(NC(=O)Nc1ccc(S(=O)(=O)Nc2ccc3c(c2)CN(C)C3)cc1)c1ccccc1 (centres unmarked) [H1308, N-(2-methylisoindolin-5-yl)-4-(3-(1-phenylethyl)ureido) benzenesulfonamide] | > 30000 | 23.5 | 31.2 | 38.5 | 49.4 | – | –
C[C@H](NC(=O)Nc1ccc(S(=O)(=O)Cc2ccc3c(c2)CN(C)CC3)cc1)c1ccccc1 [H1311, (S)-1-(4-(((2-methyl-1,2,3,4-tetrahydroisoquinolin-7-yl)methyl)sulfonyl)phenyl)-3-(1-phenylethyl)urea] | > 30000 | 108 | 84.6 | 123.8 | 95.9 | – | –
C[C@@H](NC(=O)Nc1ccc(S(=O)(=O)Cc2ccc3c(c2)CN(C)C3)cc1)c1ccccc1 [H1356, (R)-1-(4-(((2-methylisoindolin-5-yl)methyl)sulfonyl)phenyl)-3-(1-phenylethyl)urea] | > 30000 | – | – | 126 | 382.5 | – | –
CC(NC(=O)Nc1c(F)cc(S(=O)(=O)Cc2ccc3c(c2)CNC3)cc1F)c1ccccc1.O=C(O)C(F)(F)F (centres unmarked) [H1404, 1-(2,6-difluoro-4-((isoindolin-5-ylmethyl)sulfonyl)phenyl)-3-(1-phenylethyl)urea] | > 30000 | 1620 | – | 19 | 10 | – | –
COc1cc(S(=O)(=O)Cc2ccc3c(c2)CCNC3)ccc1NC(=O)N[C@H](C)c1cccc(Cl)c1Cl [H1481, (R)-1-(1-(2,3-dichlorophenyl)ethyl)-3-(2-methoxy-4-(((1,2,3,4-tetrahydroisoquinolin-6-yl)methyl)sulfonyl)phenyl)urea] | – | – | – | 13.2 | < 10 | > 30000 | 0.2
